Source: patent EP1981504B1, “THIADIAZOLE DERIVATIVES FOR THE TREATMENT OF NEURO DEGENERATIVE DISEASES” (NV reMYND, priority 2006, dated 2007)
≈ marks a conversion by molar mass, not a printed value.

Tested on: M17-SYNwt cells
Test: α-synuclein cytotoxicity assay (LDH leakage from paraquat-treated α-synuclein over-expressing neuroblastoma cells)
Format: cell-based, human
Settings: paraquat 32 mM, 40 hours, LDH release; for EC50: Homo sapiens, Neuroblastoma cell, 10 point curves in duplicate; for %I: percent inhibition of synuclein cytotoxicity at most effective concentration of test compound, relative to untreated paraquat cells
How it was run: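 M17 neuroblastoma cells over-expressing wild-type α-synuclein were challenged with paraquat, and cytotoxicity was read as LDH release. Protection was expressed as percent reduction of paraquat-induced LDH release relative to untreated paraquat cells and control cells. Actives were retested in 10-point duplicate dose responses.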

| SMILES | EC50 | %I |
| --- | --- | --- |
| Cc1ccc(Cc2nsc(N3CCN(C(=O)c4ccc5c(c4)OCO5)C(C)C3)n2)cc1 (stereo not shown) [Compound 161, 1-(1,3-benzodioxol-5-ylcarbonyl)-4-[3-(4-methylbenzyl)-1,2,4-thiadiazol-5-yl]-2-methyl+B176piperazine] | 3.36 µg/mL (≈ 7.7 µM) | 101% |
| O=S(=O)(c1ccc(O)cc1)N1CCN(c2nc(Cc3ccc(F)cc3)ns2)CC1 [Compound 217, 1-(4-hydroxybenzenesulfonyl)-4-[3-(4-fluoro-benzyl)-1,2,4-thiadiazol-5-yl]piperazine] |  | 77% |
| CCCCS(=O)(=O)N1CCN(c2nc(Cc3ccc(Cl)cc3)ns2)CC1 [Compound 81, 1-(butylsulfonyl)-4-[3-(4-chlorobenzyl)-1,2,4-thiadiazol-5-yl]piperazine] | 0.35 µg/mL (≈ 0.843 µM) | 80% |
| O=C(Cc1ccccc1)NCCN1CCN(c2nc(Cc3ccc(F)cc3)ns2)CC1 [Compound 108, 2-phenyl-N-{2-[4-[3-(4-fluorobenzyl)-1,2,4-thiadiazol-5-yl]piperazin-1-yl]ethyl}acetamide] | 2.06 µg/mL (≈ 4.69 µM) | 63% |
| O=S(=O)(c1ccc(F)cc1)N1CCN(c2nc(Cc3ccc(Cl)cc3)ns2)CC1 [Compound 33, 1-[4-fluorophenylsulfonyl]-4-[3-(4-chlorobenzyl)-1,2,4-thiadiazol-5-yl]piperazine] | 0.00282 µg/mL (≈ 0.00622 µM) | 53% |
| O=C(NCCN1CCN(c2nc(Cc3ccccc3)ns2)CC1)c1cccc(F)c1 [Compound 106, 3-fluoro-N-{2-[4-[3-benzyl-1,2,4-thiadiazol-5-yl]piperazin-1-yl]ethyl}benzamide] |  | 49% |
| CC1CN(c2nc(Cc3ccc(Cl)cc3)ns2)CCN1C(=O)c1cccc(F)c1 (stereo not shown) [Compound 125, 1-(3-fluorobenzoyl)-4-[3-(4-chlorobenzyl)-1,2,4-thiadiazol-5-yl]-2-methylpiperazine] | 0.16 µg/mL (≈ 0.371 µM) | 68% |
| CC1CN(c2nc(Cc3ccc(F)cc3)ns2)CCN1C(=O)Cc1ccccc1 (stereo not shown) [Compound 5, 1-phenylacetyl-4-[3-(4-fluorobenzyl)-1,2,4-thiadiazol-5-yl]-2-methylpiperazine] |  | 83% |
| CC1CN(c2nc(Cc3ccc(F)cc3)ns2)CCN1C(=O)c1cccc(Br)c1 (stereo not shown) [Compound 142, 1-(3-bromobenzoyl)-4-[3-(4-fluorobenzyl)-1,2,4-thiadiazol-5-yl]-2-methylpiperazine] | 0.5 µg/mL (≈ 1.05 µM) | 72% |
| Clc1ccc(Cc2nsc(N3CCN(C/C=C/c4ccccc4)CC3)n2)cc1 [Compound 92, 1-[3-phenylprop-2-enyl]-4-[3-(4-chlorobenzyl)-1,2,4-thiadiazol-5-yl]piperazine] | 0.75 µg/mL (≈ 1.82 µM) | 69% |
| O=C(c1ccccc1)N1CCN(c2nc(Cc3ccc(F)cc3)ns2)CC1 [Compound 181, 1-benzoyl-4-[3-(4-fluorobenzyl)-1,2,4-thiadiazol-5-yl]piperazine] |  | 60% |
| Cc1ccc(Cc2nsc(N3CCN(S(=O)(=O)c4cccc5cccnc45)CC3)n2)cc1 [Compound 70, 1-[quinoline-8-sulfonyl]-4-[3-(4-methylbenzyl)-1,2,4-thiadiazol-5-yl]piperazine] |  | 44% |
| Cc1ccc(Cc2nsc(N3CCN(C(=O)c4cccc(F)c4)CC3)n2)cc1 [Compound 162, 1-(3-flurorbenzoyl)-4-[3-(4-methylbenzyl)-1,2,4-thiadiazol-5-yl]piperazine] | 3.4 µg/mL (≈ 8.58 µM) | 101% |
| COc1ccc(S(=O)(=O)N2CCN(c3nc(Cc4cccc(F)c4)ns3)CC2)cc1 [Compound 193, 1-[4-methoxyphenylsulfonyl]-4-[3-(3-fluoro-benzyl)-1,2,4-thiadiazol-5-yl]piperazine] | 0.0048 µg/mL (≈ 0.0107 µM) | 68% |
| Cc1ccc(Cc2nsc(N3CCN(S(=O)(=O)c4ccc([N+](=O)[O-])cc4)C(C)C3)n2)cc1 (stereo not shown) [Compound 71, 1-[4-nitrophenylsulfonyl]-4-[3-(4-methylbenzyl)-1,2,4-thiadiazol-5-yl]-2-methylpiperazine] |  | 33% |
| CCCCc1ccc(C(=O)N2CCN(c3nc(Cc4ccc(C)cc4)ns3)CC2C)cc1 (stereo not shown) [Compound 117, 1-(4-butylbenzoyl)-4-[3-(4-methylbenzyl)-1,2,4-thiadiazol-5-yl]-2-methylpiperazine] | 0.0841 µg/mL (≈ 0.187 µM) | 82% |
| Fc1ccc(Cc2nsc(N3CCN(c4ccccc4F)CC3)n2)cc1 [Compound 187, 1-(2-fluorophenyl)-4-[3-(4-fluorobenzyl)-1,2,4-thiadiazol-5-yl]piperazine] | 2.81 µg/mL (≈ 7.54 µM) | 83% |
| CC1CN(c2nc(Cc3ccc(F)cc3)ns2)CCN1C(=O)c1cccc(Cl)c1 (stereo not shown) [Compound 122, 1-(3-chlorobenzoyl)-4-[3-(4-fluorobenzyl)-1,2,4-thiadiazol-5-yl]-2-methylpiperazine] | 0.14 µg/mL (≈ 0.325 µM) | 92% |
| COc1ccc(S(=O)(=O)N2CCN(c3nc(Cc4ccc(F)cc4)ns3)CC2)cc1 [Compound 32, 1-[4-methoxyphenylsulfonyl]-4-[3-(4-fluorobenzyl)-1,2,4-thiadiazol-5-yl]piperazine] | 0.0024 µg/mL (≈ 0.00535 µM) | 78% |
| O=C(Cc1ccc(F)cc1)N1CCN(c2nc(Cc3ccc(F)cc3)ns2)CC1 [Compound 2, 4-(4-fluorophenylacetyl),1-[3-(4-fluorobenzyl)-1,2,4-thiadiazol-5-yl]piperazine] | 0.25 µg/mL (≈ 0.603 µM) | 54% |
| O=C(NCCN1CCN(c2nc(Cc3ccc(Cl)cc3)ns2)CC1)c1cccc(F)c1 [Compound 100, 3-fluoro-N-(2-[4-[3-(4-chlorobenzyl)-1,2,4-thiadiazof-5-yl]piperazin-1-yl]ethyl)benzamide] | 1.79 µg/mL (≈ 3.89 µM) | 75% |
| CC1CN(c2nc(Cc3ccc(F)cc3)ns2)CCN1C(=O)c1ccc([N+](=O)[O-])cc1Cl (stereo not shown) [Compound 177, 1-(2-chloro-4-nitrobenzoyl)-4-[3-(4-fluorobenzyl)-1,2,4-thiadiazol-5-yl]-2-methylpiperazine] |  | 77% |
| Cc1ccc(C(=O)N2CCN(c3nc(Cc4ccc(F)cc4)ns3)CC2)cc1 [Compound 141, 1-(4-methylbenzoyl)-4-[3-(4-fluorobenzyl)-1,2,4-thiadiazol-5-yl]piperazine] | 0.49 µg/mL (≈ 1.24 µM) | 75% |
| CCc1ccc(C(=O)NCCN2CCN(c3nc(Cc4ccc(F)cc4)ns3)CC2)cc1 [Compound 103, 4-ethyl-N-{2-[4-[3-(4-fluorobenzyl)-1,2,4-thiadiazol-5-yl]piperazin-1-yl]ethyl}benzamide] | 2.32 µg/mL (≈ 5.11 µM) | 139% |
| CC1CN(c2nc(Cc3ccc(F)cc3)ns2)CCN1C(=O)c1ccccc1Cl (stereo not shown) [Compound 166, 1-(2-chlorobenzoyl)-4-[3-(4-fluorobenzyl)-1,2,4-thiadiazol-5-yl]-2-methylpiperazine] |  | 123% |
| Cc1ccc(Cc2nsc(N3CCN(S(=O)(=O)c4ccc(C)cc4)C(C)C3)n2)cc1 (stereo not shown) [Compound 50, 1-[4-methylphenylsulfonyl]-4-[3-(4-methylbenzyl)-1,2,4-thiadiazol-5-yl]-2-methylpiperazine] |  | 105% |
| CCOc1ccccc1N1CCN(c2nc(Cc3ccc(F)cc3)ns2)CC1 [Compound 186, 1-(2-ethoxyphenyl)-4-[3-(4-fluorobenzyl)-1,2,4-thiadiazol-5-yl]piperazine] | 2.05 µg/mL (≈ 5.14 µM) | 94% |
| Cc1ccc(Cc2nsc(N3CCN(S(=O)(=O)c4cccc(C(F)(F)F)c4)CC3)n2)cc1 [Compound 62, 1-[3-trifluoromethylphenylsulfonyl]-4-[3-(4-methylbenzyl)-1,2,4-thiadiazol-5-yl]piperazine] |  | 45% |
